Experimental data: patent US7846944B2, “Pyrazolo-pyridinone compounds and methods of use thereof” (Amgen Inc., priority 2007, dated 2010)
Read-outs that look alike come from different tables or passages of the source.

Experiments:
[1] = test system: Collagen-Induced Arthritis (CIA) Model in Rats; test: Collagen-induced arthritis (CIA) model in rats; type: in vivo; details: 168 h; rat, treated for 7 days from onset of arthritis
Experimental: Collagen-Induced Arthritis (CIA) Model in Rats
Porcine type II collagen (10 mg) was dissolved in 0.1N acetic acid (5 mL) two days prior to use on a rotating plate in the refrigerator. Subsequently, collagen was emulsified 1:1 with Freund's incomplete adjuvant using an emulsification needle and glass syringes yielding a final concentration of 1 mg/mL.
Disease was induced in each animal by intradermal injection of emulsified collagen in IFA at 10 different sites (100 μL per site) over the back. […] At onset (defined as Day 0), rats were randomized to treatment groups and therapy was initiated with drug or vehicle control as noted in table above. Rats were treated for 7 days and were sacrificed on Day 8.

[2] = test system: production of IL-1β, IL-6, and TNF-α by PBMC activated with LPS; test: Lipopolysaccharide-activated PBMC cytokine production assay; type: cell-based; details: read-out: IC50 in the whole blood PMBC assay
Experimental: Lipopolysaccharide-Activated PBMC Cytokine Production Assay
Test compounds were evaluated in vitro for the ability to inhibit the production of IL-1β, IL-6, and TNF-α by PBMC activated with bacterial lipopolysaccharide (LPS). Fresh leukocytes were obtained from a local blood bank, and peripheral blood mononuclear cells (PBMCs) were isolated by density gradient centrifugation on Ficol-Paque Plus (Pharmacia).
Preparation of Test Compound Stock Solutions
All reagents were prepared in RPMI 1640+10% v/v human AB serum+1×Pens/Strep/Glu (assay medium). Test compounds were dissolved in 100% DMSO and serially diluted in 96-well polypropylene round bottom micro titer plates (drug plate). Serial dilutions were then diluted 1:250 into assay medium to a 4× working concentration. Compound serial dilutions were half-log, 10 point titrations with a final starting concentration of 1 μM.
Treatment of Cells with Test Compounds and Activation with Lipopolysaccharide
LPS was prepared to a 4× concentration in assay medium. 100 μl of PBMC (1×10^6 cells/ml) were plated in a 96-well polystyrene flat bottom micro titer tissue culture plate and incubated with 50 μl of 4× compound serial dilution for 1 hour at 37° C., 5% CO2 in a tissue culture incubator. 50 μl 4×LPS or control was added and the plates were incubated at 37° C., 5% CO2 in a tissue culture incubator for 18 hours. The final DMSO concentration was 0.1%. The total volume was 200 μL. The final LPS concentration was 100 ng/mL. After 18 hours culture supernatants were removed and IL-1β, IL-6, and TNF-α presence in the supernatants was quantified using MSD ECL based technology.
Cytokine Measurements 20 μL of culture supernatant were added to MSD plates, and incubated for one hour at room temperature. 20 μL of detection antibody diluted in antibody diluent (1 μg/mL), and 110 μL of 2× Read Buffer P was added, and incubated for one hour at RT. Electrochemiluminescence was measured using the SECTOR HTS Imager (MSD, Gaithersburg, Md.). Data Analysis
Compound IC50 values were calculated as follows: The proportion of cytokine production in the presence of compound compared to the cytokine production in the presence of the DMSO vehicle alone (Hi control) was calculated using the formula: Percent Control (POC)=(compound−average Lo)/(average Hi−average Lo)*100.

[3] = test system: TNF-α secretion by LPS-treated THP1 cells; test: Lipopolysaccharide-activated THP1 cell TNF production assay; type: cell-based; details: Homo sapiens, read-out: IC50 in the THP-1 cellular TNF production assay
recombinant human p38α = recombinant human p38α (Homo sapiens, UniProt Q16539); test: Purified and activated recombinant human p38α HTRF kinase assay; type: biochemical; details: 1 nM p38α, 50 μM ATP, GST-ATF2 substrate, read-out: p38a IC50
[4] = LPS 100 ng/mL, 18 hours, IL-1β, IL-6, TNF-α
[5] = THP-1, LPS, 3 hours, THP1 cells

Chain of recombinant human p38α (Q16539 whole entry): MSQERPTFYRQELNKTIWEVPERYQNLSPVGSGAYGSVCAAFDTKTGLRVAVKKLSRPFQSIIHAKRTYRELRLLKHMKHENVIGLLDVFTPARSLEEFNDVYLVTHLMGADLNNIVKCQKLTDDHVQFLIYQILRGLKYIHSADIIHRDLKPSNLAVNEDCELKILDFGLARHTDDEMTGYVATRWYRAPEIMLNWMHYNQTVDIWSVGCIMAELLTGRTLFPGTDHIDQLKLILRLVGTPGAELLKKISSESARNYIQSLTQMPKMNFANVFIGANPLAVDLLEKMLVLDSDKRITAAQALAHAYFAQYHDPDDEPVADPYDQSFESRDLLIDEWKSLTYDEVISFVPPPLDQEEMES

| IC50 [3, 5] [nM] | IC50 (recombinant human p38α) [nM] | Structure (SMILES) | ED50 [1] [mg/kg] | IC50 [2, 4] [nM] | IC50 ([2]; 18 h) [nM] | IC50 ([3]; THP-1, 3 h) [nM] |
| --- | --- | --- | --- | --- | --- | --- |
| ≤ 175 | – | Cc1ccc(C(=O)NC2CC2)cc1-c1cc2cnn(-c3c(F)cccc3F)c2n(C)c1=O [Example 7, N-cyclopropyl-3-(1-(2,6-difluorophenyl)-7-methyl-6-oxo-6,7-dihydro-1H-pyrazolo[3,4-b]pyridin-5-yl)-4-methylbenzamide] | 0.01 | ≤ 125 | – | – |
| – | – | Cc1ccc(C(=O)NC2CC2)cc1-c1cc2cnn(-c3ccc(F)cc3F)c2n(C)c1=O [Example 13, N-cyclopropyl-3-(1-(2,4-difluorophenyl)-7-methyl-6-oxo-6,7-dihydro-1H-pyrazolo[3,4-b]pyridin-5-yl)-4-methylbenzamide] | 0.02 | – | ≤ 125 | ≤ 175 |
| ≤ 175 | 3.4 | Cc1ccc(C(N)=O)cc1-c1cc2cnn(-c3c(F)cccc3F)c2n(C)c1=O [Example 44, 3-(1-(2,6-difluorophenyl)-7-methyl-6-oxo-6,7-dihydro-1H-pyrazolo[3,4-b]pyridin-5-yl)-4-methylbenzamide] | 0.07 | ≤ 125 | – | – |
